Several values for one entry are separate records, joined by “and”; a condition that tells them apart may be missing. Equal entries are not always repeated.
Tests used:
[1] = biological target: T1, Solute carrier family 22 member 2 (Rattus norvegicus, UniProt Q9R0W2); assay: TP_TRANSPORTER: inhibition of Dopamine uptake (Dopamine: 0.1 uM, Cocaine: 1 uM) in OCT2-expressing HEK293 cells; format: functional, cell-based; conditions: human, hek293, 1 µM
T1 sequence (Q9R0W2 whole entry): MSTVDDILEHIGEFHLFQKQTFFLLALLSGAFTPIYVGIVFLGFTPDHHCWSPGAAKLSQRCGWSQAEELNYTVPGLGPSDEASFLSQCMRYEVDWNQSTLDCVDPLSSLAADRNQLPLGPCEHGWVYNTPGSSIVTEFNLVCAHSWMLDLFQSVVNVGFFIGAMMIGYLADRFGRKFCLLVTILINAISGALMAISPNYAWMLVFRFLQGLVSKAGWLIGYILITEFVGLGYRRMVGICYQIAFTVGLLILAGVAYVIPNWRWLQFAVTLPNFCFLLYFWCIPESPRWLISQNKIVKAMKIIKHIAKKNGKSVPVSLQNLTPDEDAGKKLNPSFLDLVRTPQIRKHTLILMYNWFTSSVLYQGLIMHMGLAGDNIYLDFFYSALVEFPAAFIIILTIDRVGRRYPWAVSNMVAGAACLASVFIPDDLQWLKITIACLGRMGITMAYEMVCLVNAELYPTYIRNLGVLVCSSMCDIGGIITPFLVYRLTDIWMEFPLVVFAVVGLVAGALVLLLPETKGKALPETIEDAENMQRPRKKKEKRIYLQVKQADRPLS

[2] = biological target: T1, Solute carrier family 22 member 2; assay: TP_TRANSPORTER: inhibition of Dopamine uptake in OCT2-expressing HEK293 cells; format: functional, cell-based
[3] = biological target: T1, Solute carrier family 22 member 2; assay: TP_TRANSPORTER: inhibition of Noradrenaline uptake in OCT2-expressing HEK293 cells; format: functional, cell-based
[4] = biological target: T1, Solute carrier family 22 member 2; assay: TP_TRANSPORTER: inhibition of Adrenaline uptake in OCT2-expressing HEK293 cells; format: functional, cell-based
[5] = biological target: T1, Solute carrier family 22 member 2; assay: TP_TRANSPORTER: inhibition of Serotonin uptake in OCT2-expressing HEK293 cells; format: functional, cell-based
[6] = biological target: T1, Solute carrier family 22 member 2; assay: TP_TRANSPORTER: inhibition of Dopamine uptake (Dopamine: 0.1 uM, O-Methylisoprenaline: 30 uM) in OCT2-expressing HEK293 cells; format: functional, cell-based; conditions: human, hek293, 30 µM
[7] = substrate: CNC[C@H](O)c1ccc(O)c(O)c1; assay: cells, lysate or membranes named
[8] = substrate: NCCc1c[nH]c2ccc(O)cc12; assay: cells, lysate or membranes named
Description: (§1) TP_TRANSPORTER: uptake in OCT2-expressing HEK293 cells

[9] = substrate: NCCc1ccc(O)c(O)c1; assay: cells, lysate or membranes named
[10] = substrate: NC[C@H](O)c1ccc(O)c(O)c1; assay: cells, lysate or membranes named
Description: as §1

## COC(=O)[C@H]1[C@@H](OC(=O)c2ccccc2)C[C@@H]2CC[C@H]1N2C [COCAINE]
[1]
  Activity: is not an inhibitor [-]

## C[C@]12C[C@H](O)[C@H]3[C@@H](CCC4=CC(=O)CC[C@@]43C)[C@@H]1CC[C@@H]2C(=O)CO [CORTICOSTERONE]
[2]
  Ki: 390 nM
[3]
  Ki: 460 nM
[4]
  Ki: 420 nM
[5]
  Ki: 605 nM

## CC(C)N1/C(=C\c2cc[n+](C(C)C)c3ccccc23)C=Cc2ccccc21 [DISPROCYNIUM24]
[2]
  Ki: 5.1 nM
[3]
  Ki: 13 nM
[4]
  Ki: 12 nM
[5]
  Ki: 13 nM

## COc1cc(C(O)CNC(C)C)ccc1O (centres undefined) [METIPRENALINE]
[6]
  Activity: is not an inhibitor [-]

B1: Solute carrier family 22 member 2 (Rattus norvegicus) (protein)
chain: T1 sequence (Q9R0W2 whole entry)
[7]
  Km: 1.9 mM
[8]
  Km: 3.6 mM
[9]
  Km: 2.1 mM
[10]
  Km: 11 mM and 4.4 mM

Reference: ChEMBL document CHEMBL2074405, “Transport of monoamine transmitters by the organic cation transporter type 2, OCT2” (J Biol Chem, 1998)
